The values below come from patent US20090317477A1, “COMBINATION OF DEHYDROEPIANDROSTERONE OR DEHYDROEPIANDROSTERONE-SULFATE WITH A GLUCOCORTICOSTEROID FOR TREATMENT OF ASTHMA, CHRONIC OBSTRUCTIVE PULMONARY DISEASE OR ALLERGIC RHINITIS” (priority 2004, published 2009).

“And” between values parts separate entries of the source, which are not always exact repeats. Identical values can stand only once.

The subject of one series is Intracellular adenosine. The class given is in vivo, Fischer 344 rats. To be noted: rat.
Series [1] deals with HT-29 SF cells. The experiment in a line: DHEA effect on cell cycle (flow cytometry). Format: cell-based, human. The procedure:
Cells are plated at 10^5/60-mm dish in duplicate. […] Cultures are trypsinized following […] and fixed and stained using a modification of a procedure of Bauer et al., Cancer Res. 46, 3173-3178 (1986). Briefly, cells are collected by centrifugation and resuspended in cold phosphate-buffered saline. Cells are fixed in 70% ethanol, washed, and resuspended in phosphate-buffered saline.
After 24, 48, and 72 hours, cells are harvested, fixed in ethanol, and stained with propidium iodide, and the DNA content/cell is determined by flow cytometric analysis. The percentage of cells in G1, S, and G2M phases is calculated using the Cellfit cell cycle analysis program. S phase is marked by a quadrangle for clarity. Representative histograms from duplicate determinations are shown. The experiment is repeated three times.

Series [2] concerns HT-29 SF cells. The experiment in a line: Reversal of DHEA effect on cell cycle. To be noted: 25 μM DHEA; increasing exposure time. The class given is cell-based, human.
The test system of series [3] is HT-29 SF cells. The series can be described thus: DHEA effect on cell growth.
Method: Cell cultures, HT-29 SF cells, which represent a subline of HY-29 cells (ATCC, Rockville, Md.) and are adapted for growth in completely defined serum-free PC-1 medium (Ventrex, Portland, Me.), are obtained. Stock cultures are maintained in this medium at 37° C. (in a humidified atmosphere containing 5% CO2).
The nature of series [4]: Solid-state stability at 50° C. with and without lactose (DHEA formed, HPLC). The class given is physicochemical. The following applies: dihydrate. The text has this: These conditions are used to stress the formulation in order to predict its long-term stability results. […] The primary degradant is DHEA. […] The materials on accelerated storage become more cohesive with time as evidenced by clumping during sample weighing for chemical analysis. […] This is a considerable disadvantage since lactose is the most commonly used inhalation excipient for dry powder formulations. Continuing with the virtually anhydrous form would mean limiting formulations to neat powder or undertaking more comprehensive safety studies to use a novel excipient.

The next series has as its target T1, Glucocorticoid receptor (Homo sapiens, UniProt P04150).
T1 sequence (P04150 1-777): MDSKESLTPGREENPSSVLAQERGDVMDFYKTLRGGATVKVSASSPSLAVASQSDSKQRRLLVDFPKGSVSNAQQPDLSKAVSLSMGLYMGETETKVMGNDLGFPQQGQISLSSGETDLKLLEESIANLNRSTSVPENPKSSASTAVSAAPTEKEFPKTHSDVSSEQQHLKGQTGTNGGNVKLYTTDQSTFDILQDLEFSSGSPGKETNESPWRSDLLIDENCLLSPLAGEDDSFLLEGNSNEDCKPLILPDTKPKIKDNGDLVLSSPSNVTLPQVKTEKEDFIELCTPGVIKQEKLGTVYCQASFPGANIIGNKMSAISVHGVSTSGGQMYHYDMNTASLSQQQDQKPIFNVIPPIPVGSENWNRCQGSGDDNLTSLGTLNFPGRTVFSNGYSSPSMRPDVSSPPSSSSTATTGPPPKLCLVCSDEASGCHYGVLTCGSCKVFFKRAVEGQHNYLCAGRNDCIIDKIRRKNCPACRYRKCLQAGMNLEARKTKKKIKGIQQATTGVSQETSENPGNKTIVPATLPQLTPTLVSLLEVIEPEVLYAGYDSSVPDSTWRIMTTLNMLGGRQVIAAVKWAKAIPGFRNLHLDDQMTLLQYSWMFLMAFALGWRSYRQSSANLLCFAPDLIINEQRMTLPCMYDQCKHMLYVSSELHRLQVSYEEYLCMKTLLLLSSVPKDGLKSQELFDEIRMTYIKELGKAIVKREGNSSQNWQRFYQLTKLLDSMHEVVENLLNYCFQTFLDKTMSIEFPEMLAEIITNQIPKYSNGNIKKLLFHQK
The series can be described thus: Radioligand binding assay, Glucocorticoid. The following applies: 100 μM.

The nature of series [5]: Fine particle fraction, single-dose Acu-Breathe device into Andersen impactor. Format: physicochemical. To be noted: aerosol of dihydrate/lactose blend; Test 2; 60 L/min. The procedure:
The single-dose Acu-Breathe device is used for evaluating DHEA-S-dihydrate. Approximately 10 mg of neat DHEA-S-dihydrate powder is filled and sealed into foil blisters. These blisters are actuated into the Andersen 8-stage cascade impactor at flow rates ranging from 30 to 75 L/min with a glass twin-impinger throat. Stages 1-5 of the Andersen impactor are rinsed together to obtain an estimate of the fine particle fraction. Pooling the drug collected from multiple stages into one assay make the method much more sensitive. […] This unique feature of DHEA-S-dihydrate has not been reported in any previous literature. […] Using a carrier with a larger particle size typically improves the aerosol properties of micronized drug substances.
Approximately 25 mg of this powder is filled and sealed in foil blisters and aerosolized using the single-dose device at 60 L/min. The aerosol results for this preliminary powder blend are satisfactory for a respiratory drug delivery system. […] This diameter is smaller than the median diameter measured for micronized DHEA-S-dihydrate by laser diffraction. Irregularly shaped particles can behave aerodynamically as smaller particles since their longest dimension tends to align with the air flow field. Therefore, it is common to see a difference between the two methods. […]

Series [6] in a line: Nebulizer studies (Pari ProNeb Ultra, LC Plus). The class given is physicochemical. To be noted: 0.12% NaCl.
Method: The nebulizer is filled with 5 mL of solution and nebulization is continued until the output became visually insignificant (4½ to 5 min.). Nebulizer solutions are tested using a California Instruments AS-6 6-stage impactor with a USP throat. The impactor is run at 30 L/min for 8 s to collect a sample following one minute of nebulization time. At all other times during the experiment, the aerosol is drawn through the by-pass collector at approximately 33 L/min. The collection apparatus, nebulizer, and impactor are rinsed with mobile phase and assayed by HPLC. […] This volume is selected as the practical upper limit for use in a clinical study.
Series [7] deals with LPS-induced secretion of TNFα from PBMC. The experiment in a line: LPS-induced secretion of TNFα from PBMC. Format: cell-based, human. The procedure:
Thereafter, 1 μg/ml LPS was added to induce the cytokine secretion and the mixture was incubated for 24 h at 37° C. For basal control measurements, LPS was omitted from the incubation medium. Following incubation, the samples were centrifuged at 250× g for 5 min at 4° C. and the supernatants were collected.
The amount of secreted TNF-α present in the supernatant was quantified using an EIA detection kit (R&D systems). The photometric measurements were made with a microplate reader (Ultra, Tecan).
The results are expressed as a percent inhibition of the control secretion induced by LPS in Table 16.

The next series can be described thus: Solubility of DHEA-S. The class given is physicochemical. The following applies: 20 mM Na^+; Ksp of 1316 mM^2 (15° C.). An excerpt:
Inhalation of pure water can produce a cough stimulus. […] The temperature effect is weaker at high NaCl concentrations.

Series [8] concerns Glucocorticoid, Testosterone, Estrogen ERα, Estrogen ERβ, Progesterone, Vitamin D3 receptors. The experiment in a line: Radioligand binding assays, steroid receptor panel (statements in words).
The mark [9] stands for this setting: Homo sapiens, PBMC, read-out: percent inhibition of LPS-induced TNFα secretion.

As to `Nc1nc(=O)c2c([nH]1)NCC(CNc1ccc(C(=O)N[C@@H](CCC(=O)O)C(=O)O)cc1)N2C=O` (mixture of isomers) [Folinic Acid], the “Intracellular adenosine, Brain” value in the series with Intracellular adenosine (in vivo) is 0.72 ± 0.09. For the same molecule, the “effect of coadministration of folinic acid on steroid-mediated adenosine depletion” value in the series with Intracellular adenosine (with DHEA or methyltestosterone) was “completely abrogate steroid-mediated adenosine depletion”.
For `C[C@]12CC[C@H](O)CC1=CC[C@@H]1[C@@H]2CC[C@]2(C)C(=O)CC[C@@H]12` [DHEA, 3β-hydroxyandrost-5-en-17-one], the cell cycle distribution entry in the series with HT-29 SF cells [1] (200 μM DHEA) is “more rapid increase in the percentage of cells in G1 and a decreased proportion of cells in S phase after 24 hours”. For the same molecule, the “cell cycle effect” value with HT-29 SF cells [1] (25, 50, 200 μM, 24-72 hours) was “G1 block in HT-29 SF cells in a time-and dose-dependent manner”. In addition, the “effect on proportion of cells in S phase” value in the series with HT-29 SF cells [2] is “progressively reduced the proportion of cells in S phase”. In addition, in the series on Intracellular adenosine (daily for two weeks), the “effect on adenosine across organs” value is recorded as “multi-organ depletion of adenosine”. Moreover, the “exposure time after which cell number is reduced compared to controls” value was 72 h with HT-29 SF cells [3] (12.5 μM DHEA), 48 h with HT-29 SF cells [3] (25 μM DHEA), 48 h in the series on HT-29 SF cells [3] (50 μM DHEA) and 24 h with HT-29 SF cells [3] (200 μM DHEA). Besides, the “inhibition of growth” value with HT-29 SF cells [3] (12.5-200 μM, 24-72 hours) is “time- and dose-dependent inhibition of growth”.
Take `CC12CCC3C(CC=C4CC(OS(=O)(=O)[O-])CCC43C)C1CCC2=O.[Na+]` (centres unmarked) [DHEA-S dihydrate]: the “Percent DHEA formed” value in [4] (50° C., 1 week) was 0.216%; in series [4] (50° C., 3 weeks), 0.317%; in series [4] (50° C., 4 weeks), 0.374%; in series [4] (Control, sealed, 25° C., 4 weeks), 0.218%; in series [4] (Control, sealed, 25° C., first column (Time=0)), 0.213%.
With `C[C@]12CC[C@H](OS(=O)(=O)[O-])CC1=CC[C@@H]1[C@@H]2CC[C@]2(C)C(=O)CC[C@@H]12.[Na+]` [DHEA-S, sodium dehydroepiandrostenone sulfate], the “binding to the glucocorticosteroid receptor” value at Glucocorticoid receptor is “does not bind to the glucocorticosteroid receptor”. The “median diameter of aerosol by cascade impaction” value in [5] was ~2.5 μm. Besides, the “highest solution concentration for a clinical trial formulation (no precipitate during nebulization)” value in series [6] is “approximately 7.5 mg/mL”. The “percent inhibition of LPS-induced TNFα secretion” value is −2% in series [7] (DHEAS 30 μM alone) and 32% in [7] (DHEAS 100 μM alone). The “calculated solubility of DHEA-S^−” value in the series “Solubility of DHEA-S” was 27.5 mM and 10.7 mg/mL. The “binding to the steroid receptors” value in series [8] is listed as “lack of effect on ligand binding on the other four receptors”.
For the molecule `C[C@@H]1C[C@H]2[C@@H]3CCC4=CC(=O)C=C[C@]4(C)[C@@]3(F)[C@@H](O)C[C@]2(C)[C@@]1(O)C(=O)CO` [Dexamethasone], in series [7] (setting [9]), the inhibition at 0.001 µM was -3%, the inhibition at 0.01 µM was 4% and the inhibition at 0.1 µM amounted to 36%.
